Assay results taken from US11254686B1 (Corvus Pharmaceuticals, Inc., priority 2017, dated 2022).

How the values were obtained:
adenosine A2B receptor = adenosine A2B receptor (Homo sapiens (Human), UniProt P29275); test: Adenosine receptor activity assay (Table 1), A2B activity; type: biochemical; settings: for Ratio: A2A activity to A2B activity (A2A/A2B); for IC50: read-out: Ave A2B cAMP IC50
adenosine A2A receptor = adenosine A2A receptor (Homo sapiens (Human), UniProt P29274); test: Adenosine receptor activity assay (Table 1), A2A activity; type: biochemical; settings: read-out: Ave A2A cAMP IC50
adenosine A1 receptor [1] = target: T1, adenosine A1 receptor (Homo sapiens (Human), UniProt P30542); test: A1 cAMP IC50 assay (Table 1); type: biochemical
adenosine A3 receptor [2] = target: T2, adenosine A3 receptor (Homo sapiens (Human), UniProt P0DMS8); test: A3 cAMP IC50 assay (Table 1); type: biochemical
adenosine A1 receptor [3] = target: T1, adenosine A1 receptor; test: Adenosine receptor activity assay (Table 1), A1 cAMP; type: cell-based
adenosine A3 receptor [4] = target: T2, adenosine A3 receptor; test: Adenosine receptor activity assay (Table 1), A3 cAMP; type: cell-based

T1 sequence (P30542 whole entry): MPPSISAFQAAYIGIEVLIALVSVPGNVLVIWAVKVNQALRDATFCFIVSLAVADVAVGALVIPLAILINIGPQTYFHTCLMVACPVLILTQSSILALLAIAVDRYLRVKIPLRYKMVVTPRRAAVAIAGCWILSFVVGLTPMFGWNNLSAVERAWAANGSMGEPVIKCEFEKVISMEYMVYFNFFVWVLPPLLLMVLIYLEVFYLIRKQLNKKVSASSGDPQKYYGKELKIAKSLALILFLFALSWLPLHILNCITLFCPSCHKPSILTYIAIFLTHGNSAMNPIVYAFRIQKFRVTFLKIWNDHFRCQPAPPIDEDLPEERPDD
Chain of adenosine A2A receptor (P29274 whole entry): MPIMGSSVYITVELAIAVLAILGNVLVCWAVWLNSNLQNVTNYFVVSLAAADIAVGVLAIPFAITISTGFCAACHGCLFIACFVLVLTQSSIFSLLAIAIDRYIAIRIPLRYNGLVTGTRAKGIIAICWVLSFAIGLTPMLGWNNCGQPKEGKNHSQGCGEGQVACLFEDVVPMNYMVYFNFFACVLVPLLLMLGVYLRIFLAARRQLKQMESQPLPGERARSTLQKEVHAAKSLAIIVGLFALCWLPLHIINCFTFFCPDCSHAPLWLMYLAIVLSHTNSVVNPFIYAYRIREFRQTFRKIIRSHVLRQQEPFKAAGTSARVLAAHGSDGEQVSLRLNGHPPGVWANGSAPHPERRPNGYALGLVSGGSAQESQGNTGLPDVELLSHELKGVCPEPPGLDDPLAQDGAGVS
Chain of adenosine A2B receptor (P29275 whole entry): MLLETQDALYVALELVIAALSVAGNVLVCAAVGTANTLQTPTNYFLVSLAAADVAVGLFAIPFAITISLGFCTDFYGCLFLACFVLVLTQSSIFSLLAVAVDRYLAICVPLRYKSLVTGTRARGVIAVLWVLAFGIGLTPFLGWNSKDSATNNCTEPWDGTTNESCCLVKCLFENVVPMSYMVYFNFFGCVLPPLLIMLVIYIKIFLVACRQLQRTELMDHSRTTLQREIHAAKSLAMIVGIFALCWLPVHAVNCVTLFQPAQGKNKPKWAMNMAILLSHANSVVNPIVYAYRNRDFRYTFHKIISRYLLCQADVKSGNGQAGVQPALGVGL
T2 sequence (P0DMS8 whole entry): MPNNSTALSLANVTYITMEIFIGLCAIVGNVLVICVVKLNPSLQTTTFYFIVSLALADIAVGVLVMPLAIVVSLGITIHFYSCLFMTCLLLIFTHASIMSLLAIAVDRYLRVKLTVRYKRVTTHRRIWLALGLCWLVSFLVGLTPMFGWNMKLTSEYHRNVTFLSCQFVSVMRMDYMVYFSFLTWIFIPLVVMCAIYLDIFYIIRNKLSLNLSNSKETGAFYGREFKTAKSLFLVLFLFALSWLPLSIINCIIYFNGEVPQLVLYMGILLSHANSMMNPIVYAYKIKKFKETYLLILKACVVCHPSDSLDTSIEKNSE

Molecule | Ratio (adenosine A2B receptor) | IC50 (adenosine A2B receptor) [nM] | IC50 (adenosine A2A receptor) [nM] | IC50 (adenosine A1 receptor [1]) [nM] | IC50 (adenosine A3 receptor [2]) [nM] | IC50 (adenosine A1 receptor [3]) [nM] | IC50 (adenosine A3 receptor [4]) [nM]
C[C@H](Nc1nc(C(=O)N2CCC(F)(F)C2)c2sccc2n1)c1cccnc1 [Example Z13, (S)-(3,3-Difluoropyrrolidin-1-yl)(2-((1-(pyridin-3-yl)ethyl)amino)thieno[3,2-d]pyrimidin-4-yl)methanone] | 3.93 | 10 to 50 | 100 to 500 | > 500 | > 500 | – | –
C[C@H](Nc1nc(C(=O)NCc2ccccc2)c2sccc2n1)c1cccnc1 [Example Z42, (S)—N-Benzyl-2-((1-(pyridin-3-yl)ethyl)amino)thieno[3,2-d]pyrimidine-4-carboxamide] | 0.20 | 100 to 500 | 10 to 50 | 100 to 500 | 50 to 100 | – | –
COc1cccc(CNC(=O)c2nc(N[C@@H](C)c3cccnc3)nc3ccsc23)n1 [Example Z73, (S)—N-((6-Methoxypyridin-2-yl)methyl)-2-((1-(pyridin-3-yl)ethyl)amino)thieno[3,2-d]pyrimidine-4-carboxamide] | 3.11 | 10 to 50 | 50 to 100 | > 500 | 50 to 100 | – | –
C[C@H](Nc1nc(C(=O)NCc2ccccn2)c2sccc2n1)c1cccnc1 [Example Z89, (S)—N-(Pyridin-2-ylmethyl)-2-((1-(pyridin-3-yl)ethyl)amino)thieno[3,2-d]pyrimidine-4-carboxamide] | 0.89 | 10 to 50 | 10 to 50 | > 500 | 50 to 100 | – | –
COC[C@@H](Nc1nc(C(=O)N2CCC2)c2sccc2n1)c1cccnc1 [Example Z341, (S)-Azetidin-1-yl(2-((2-methoxy-1-(pyridin-3-yl)ethyl)amino)thieno[3,2-d]pyrimidin-4-yl)methanone] | 30.12 | < 10 | 100 to 500 | – | – | > 500 | > 500
C[C@H](Nc1nc(C(=O)N2CC[C@H](O)C2)c2sc(C(F)(F)F)cc2n1)c1cncc(F)c1 [Example Z346, (2-(((S)-1-(5-Fluoropyridin-3-yl)ethyl)amino)-6-(trifluoromethyl)thieno[3,2-d]pyrimidin-4-yl)((S)-3-hydroxypyrrolidin-1-yl)methanone] | 448.66 | < 10 | > 500 | – | – | > 500 | > 500
C[C@H](Nc1nc(C(=O)NC[C@@H](C)O)c2sc(C(F)(F)F)cc2n1)c1cccnc1 [Example Z348, N—((R)-2-Hydroxypropyl)-2-(((S)-1-(pyridin-3-yl)ethyl)amino)-6-(trifluoromethyl)thieno[3,2-d]pyrimidine-4-carboxamide] | 92.29 | 10 to 50 | > 500 | – | – | > 500 | 50 to 100
Cc1cc2nc(N[C@@H](C)c3ccccn3)nc(C(=O)NC3CCC3)c2s1 [Example Z352, (S)—N-Cyclobutyl-6-methyl-2-((1-(pyridin-2-yl)ethyl)amino)thieno[3,2-d]pyrimidine-4-carboxamide] | 9.52 | < 10 | 10 to 50 | – | – | 50 to 100 | 50 to 100
Cc1cc2nc(N[C@@H](C)c3ccccn3)nc(C(=O)NCCO)c2s1 [Example Z353, (S)—N-(2-Hydroxyethyl)-6-methyl-2-((1-(pyridin-2-yl)ethyl)amino)thieno[3,2-d]pyrimidine-4-carboxamide] | 53.12 | < 10 | 100 to 500 | – | – | 50 to 100 | 50 to 100
Cc1cc2nc(N[C@@H](C)c3cccnc3)nc(C(=O)NCCO)c2s1 [Example Z368, (S)—N-(2-Hydroxyethyl)-6-methyl-2-((1-(pyridin-3-yl)ethyl)amino)thieno[3,2-d]pyrimidine-4-carboxamide] | 74.02 | < 10 | 100 to 500 | – | – | 50 to 100 | 50 to 100
Cc1cc2nc(N[C@@H](C)c3cncc(F)c3)nc(C(=O)NCCc3ccc(O)cc3)c2s1 [Example Z373, (S)-2-((1-(5-Fluoropyridin-3-yl)ethyl)amino)-N-(4-hydroxyphenethyl)-6-methylthieno[3,2-d]pyrimidine-4-carboxamide] | 75.08 | < 10 | 100 to 500 | – | – | 50 to 100 | 10 to 50
COc1cccc(CNC(=O)c2nc(N[C@@H](C)c3cncc(F)c3)nc3cc(C)sc23)n1 [Example Z374, (S)-2-((1-(5-Fluoropyridin-3-yl)ethyl)amino)-N-((6-methoxypyridin-2-yl)methyl)-6-methylthieno[3,2-d]pyrimidine-4-carboxamide] | 19.21 | < 10 | 100 to 500 | – | – | 50 to 100 | 10 to 50
C[C@H](Nc1nc(C(=O)NCCc2ccncc2)c2sccc2n1)c1cncc(F)c1 [Example Z382, (S)-2-((1-(5-Fluoropyridin-3-yl)ethyl)amino)-N-(2-(pyridin-4-yl)ethyl)thieno[3,2-d]pyrimidine-4-carboxamide] | 18.44 | 10 to 50 | > 500 | – | – | > 500 | > 500
Cc1cc2nc(N[C@@H](C)c3cncc(F)c3)nc(C(=O)NC[C@@H]3CCOC3)c2s1 [Example Z389, 2-(((S)-1-(5-Fluoropyridin-3-yl)ethyl)amino)-6-methyl-N—(((S)-tetrahydrofuran-3-yl)methyl)thieno[3,2-d]pyrimidine-4-carboxamide] | 50.96 | < 10 | > 500 | – | – | 50 to 100 | 50 to 100
C[C@H](O)CNC(=O)c1nc(N[C@@H](C)c2cncc(F)c2)nc2cc(C(F)(F)F)sc12 [Example Z392, 2-(((S)-1-(5-fluoropyridin-3-yl)ethyl)amino)-N—((S)-2-hydroxypropyl)-6-(trifluoromethyl)thieno[3,2-d]pyrimidine-4-carboxamide] | 248.84 | < 10 | > 500 | – | – | 50 to 100 | 50 to 100
C[C@H](Nc1nc(C(=O)NC[C@@H](C)O)c2sc(C(F)(F)F)cc2n1)c1cncc(F)c1 [Example Z393, 2-(((S)-1-(5-Fluoropyridin-3-yl)ethyl)amino)-N—((R)-2-hydroxypropyl)-6-(trifluoromethyl)thieno[3,2-d]pyrimidine-4-carboxamide] | 399.70 | < 10 | > 500 | – | – | 50 to 100 | 50 to 100

Other lines, results leading:

Ratio (adenosine A2B receptor) | IC50 (adenosine A2B receptor) [nM] | IC50 (adenosine A2A receptor) [nM] | IC50 (adenosine A1 receptor [1]) [nM] | IC50 (adenosine A3 receptor [2]) [nM] | IC50 (adenosine A1 receptor [3]) [nM] | IC50 (adenosine A3 receptor [4]) [nM] | Molecule
18.10 | 10 to 50 | > 500 | > 500 | > 500 | – | – | O=C(c1nc(NCc2cccc(F)c2)nc2ccsc12)N1CCCC1 [Example Z84, (2-((3-Fluorobenzyl)amino)thieno[3,2-d]pyrimidin-4-yl)(pyrrolidin-1-yl)methanone]
98.22 | 10 to 50 | > 500 | – | – | > 500 | 50 to 100 | C[C@H](O)CNC(=O)c1nc(N[C@@H](C)c2cccnc2)nc2cc(C(F)(F)F)sc12 [Example Z347, N—((S)-2-Hydroxypropyl)-2-(((S)-1-(pyridin-3-yl)ethyl)amino)-6-(trifluoromethyl)thieno[3,2-d]pyrimidine-4-carboxamide]
32.01 | < 10 | 100 to 500 | – | – | 50 to 100 | 50 to 100 | Cc1cc2nc(N[C@@H](C)c3cncc(F)c3)nc(C(=O)NCC3CCOCC3)c2s1 [Example Z376, (S)-2-((1-(5-Fluoropyridin-3-yl)ethyl)amino)-6-methyl-N-((tetrahydro-2H-pyran-4-yl)methyl)thieno[3,2-d]pyrimidine-4-carboxamide]
55.83 | 10 to 50 | > 500 | – | – | > 500 | 10 to 50 | CC(=O)N[C@H]1CCN(C(=O)c2nc(N[C@@H](C)c3cncc(F)c3)nc3cc(C)sc23)C1 [Example Z383, N—((S)-1-(2-(((S)-1-(5-Fluoropyridin-3-yl)ethyl)amino)-6-methylthieno[3,2-d]pyrimidine-4-carbonyl)pyrrolidin-3-yl)acetamide]
13.78 | 10 to 50 | 100 to 500 | – | – | 50 to 100 | > 500 | C[C@H](Nc1nc(C(=O)NCCc2ccc(CO)cc2)c2sccc2n1)c1cncc(F)c1 [Example Z384, (S)-2-((1-(5-Fluoropyridin-3-yl)ethyl)amino)-N-(4-(hydroxymethyl)phenethyl)thieno[3,2-d]pyrimidine-4-carboxamide]
100.94 | 10 to 50 | > 500 | – | – | > 500 | > 500 | C[C@H](Nc1nc(C(=O)NCCC2CCNC2)c2sccc2n1)c1cncc(F)c1 (stereo partly drawn) [Example Z386, 2-(((S)-1-(5-Fluoropyridin-3-yl)ethyl)amino)-N-(2-(pyrrolidin-3-yl)ethyl)thieno[3,2-d]pyrimidine-4-carboxamide]
68.99 | < 10 | 100 to 500 | – | – | 50 to 100 | 50 to 100 | Cc1cc2nc(N[C@@H](C)c3cncc(F)c3)nc(C(=O)NC[C@H]3CCOC3)c2s1 [Example Z390, 2-(((S)-1-(5-fluoropyridin-3-yl)ethyl)amino)-6-methyl-N—(((R)-tetrahydrofuran-3-yl)methyl)thieno[3,2-d]pyrimidine-4-carboxamide]
2.54 | 10 to 50 | 50 to 100 | – | – | > 500 | > 500 | ((R)-3-Methoxypyrrolidin-1-yl)(2-(((S)-1-(pyridin-2-yl)ethyl)amino)thieno[3,2-d]pyrimidin-4-yl)methanone [Example Z247]
